Test results as given in ChEMBL document CHEMBL4765237, “Structural optimization and structure-activity relationship studies of N-phenyl-7,8-dihydro-6H-pyrimido[5,4-b][1,4]oxazin-4-amine derivatives as a new class of inhibitors of RET and its drug resistance mutants” (Eur J Med Chem, 2018).
Calls of active or inactive are those of the source. The rule behind the calls is not given here.

Experiments:
[1] = Growth inhibition of human TT cells incubated for 10 days by MTT assay; format: functional; details: 240 h, time 10 day
[2] = system: BaF3; format: functional; details: Mus musculus, BaF3, 72 h; time 3 day
[3] = system: BaF3; test: Growth inhibition of mouse BaF3 cells harboring RET M918T mutant incubated for 3 days by MTT assay; format: functional; details: BaF3, 72 h, time 3 day
[4] = biological target: Proto-oncogene tyrosine-protein kinase receptor Ret (Homo sapiens, UniProt P07949)
Proto-oncogene tyrosine-protein kinase receptor Ret (Homo sapiens, UniProt P07949), sequence (P07949 whole entry): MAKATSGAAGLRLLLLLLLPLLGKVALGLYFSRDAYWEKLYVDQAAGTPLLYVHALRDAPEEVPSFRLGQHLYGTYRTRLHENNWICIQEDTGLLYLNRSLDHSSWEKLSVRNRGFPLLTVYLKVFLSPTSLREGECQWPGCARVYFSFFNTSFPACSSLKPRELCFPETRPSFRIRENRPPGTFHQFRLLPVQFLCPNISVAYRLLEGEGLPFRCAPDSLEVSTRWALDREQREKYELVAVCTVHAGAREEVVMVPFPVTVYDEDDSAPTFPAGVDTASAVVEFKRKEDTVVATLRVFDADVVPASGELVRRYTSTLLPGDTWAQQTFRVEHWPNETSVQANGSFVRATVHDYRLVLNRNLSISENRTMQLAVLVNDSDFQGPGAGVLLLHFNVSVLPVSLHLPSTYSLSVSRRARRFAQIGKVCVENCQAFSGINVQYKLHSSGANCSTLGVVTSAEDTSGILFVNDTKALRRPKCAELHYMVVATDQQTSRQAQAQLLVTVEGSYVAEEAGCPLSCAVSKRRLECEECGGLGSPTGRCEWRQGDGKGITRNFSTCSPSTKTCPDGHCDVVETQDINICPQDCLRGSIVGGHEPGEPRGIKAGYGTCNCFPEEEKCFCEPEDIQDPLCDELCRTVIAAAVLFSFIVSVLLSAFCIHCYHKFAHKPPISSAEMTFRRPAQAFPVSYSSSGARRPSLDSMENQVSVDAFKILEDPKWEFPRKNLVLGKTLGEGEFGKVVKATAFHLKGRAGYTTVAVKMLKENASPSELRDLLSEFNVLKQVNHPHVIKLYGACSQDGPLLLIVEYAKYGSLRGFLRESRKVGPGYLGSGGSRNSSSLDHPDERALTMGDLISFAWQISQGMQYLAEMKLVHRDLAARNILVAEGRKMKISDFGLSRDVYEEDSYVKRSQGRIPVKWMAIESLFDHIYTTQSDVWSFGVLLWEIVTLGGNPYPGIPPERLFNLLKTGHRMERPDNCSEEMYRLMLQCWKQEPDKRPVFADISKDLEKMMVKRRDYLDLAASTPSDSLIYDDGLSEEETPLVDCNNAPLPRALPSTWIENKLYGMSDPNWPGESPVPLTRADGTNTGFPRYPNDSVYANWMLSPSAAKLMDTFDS

[5] = system: BaF3; test: Growth inhibition of mouse BaF3 cells incubated for 3 days by MTT assay; format: functional; details: BaF3, 72 h, time 3 day
[6] = Growth inhibition of […] NIH3T3 cells harboring RET C634Y mutant incubated for 3 days by MTT assay; format: functional; details: NIH3T3, 72 h; time 3 day
[7] = system: BaF3; test: Growth inhibition of mouse BaF3 cells harboring RET V804M mutant incubated for 3 days by MTT assay; format: functional; details: BaF3, 72 h, time 3 day
[8] = system: BaF3; test: Growth inhibition of mouse BaF3 cells over expressing wild type RET incubated for 3 days by MTT assay; format: functional; details: BaF3, 72 h, time 3 day
[9] = Growth inhibition of […] NIH3T3 cells incubated for 3 days by MTT assay; format: functional; details: NIH3T3, 72 h; time 3 day
[10] = biological target: Proto-oncogene tyrosine-protein kinase receptor Ret (Homo sapiens, UniProt P07949, V804M)
Proto-oncogene tyrosine-protein kinase receptor Ret (Homo sapiens, UniProt P07949, V804M), sequence (P07949 29-1114 V804M limits assumed): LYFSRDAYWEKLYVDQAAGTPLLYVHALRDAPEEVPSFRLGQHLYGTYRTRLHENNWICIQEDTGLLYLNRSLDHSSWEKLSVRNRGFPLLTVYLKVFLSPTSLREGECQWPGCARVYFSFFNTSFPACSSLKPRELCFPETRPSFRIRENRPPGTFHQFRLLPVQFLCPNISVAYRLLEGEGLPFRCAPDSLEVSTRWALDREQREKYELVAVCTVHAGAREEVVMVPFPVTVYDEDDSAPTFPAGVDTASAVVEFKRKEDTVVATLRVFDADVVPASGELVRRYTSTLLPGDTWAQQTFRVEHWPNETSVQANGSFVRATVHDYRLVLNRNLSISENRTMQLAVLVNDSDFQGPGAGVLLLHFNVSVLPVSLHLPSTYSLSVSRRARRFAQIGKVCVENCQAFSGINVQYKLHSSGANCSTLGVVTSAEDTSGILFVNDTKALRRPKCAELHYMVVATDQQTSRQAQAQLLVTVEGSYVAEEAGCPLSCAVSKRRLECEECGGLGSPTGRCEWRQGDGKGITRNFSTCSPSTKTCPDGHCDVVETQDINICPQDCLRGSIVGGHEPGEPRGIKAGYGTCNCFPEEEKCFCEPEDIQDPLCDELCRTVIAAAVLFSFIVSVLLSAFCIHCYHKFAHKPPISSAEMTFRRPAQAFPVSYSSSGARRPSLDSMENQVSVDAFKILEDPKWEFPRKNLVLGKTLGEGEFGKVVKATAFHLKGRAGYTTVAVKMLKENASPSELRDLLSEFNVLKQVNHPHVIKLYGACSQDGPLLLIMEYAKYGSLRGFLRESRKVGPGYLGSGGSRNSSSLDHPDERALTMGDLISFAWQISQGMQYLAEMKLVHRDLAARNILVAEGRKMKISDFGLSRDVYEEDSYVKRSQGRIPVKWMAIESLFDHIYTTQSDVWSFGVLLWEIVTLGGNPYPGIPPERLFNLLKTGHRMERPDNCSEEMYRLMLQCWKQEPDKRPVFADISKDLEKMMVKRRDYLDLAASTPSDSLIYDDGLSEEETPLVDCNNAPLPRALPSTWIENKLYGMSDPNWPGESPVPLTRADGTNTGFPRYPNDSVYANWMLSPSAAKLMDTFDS

[11] = Toxicity in NOD-SCID mouse xenografted with […] cells harboring RET C634Y mutant assessed as reduction in body weight at 30 mg/kg, po administered for 18 days and measured on day 18; format: organism-based; details: in vivo, 432 h, time 18 day
[12] = system: NIH3T3; details: Homo sapiens, dose 30.0 mg/kg, time 18.0 day

| Structure (SMILES) | GI50 [2] | GI50 [3] | IC50 [4] | GI50 [5] | GI50 [7] | GI50 [8] | IC50 [10] | GI50 [1] | GI50 [6] | GI50 [9] | Activity [11] | TGI [12] |
| --- | --- | --- | --- | --- | --- | --- | --- | --- | --- | --- | --- | --- |
| O=C(Nc1ccc(Nc2ncnc3c2OCCN3)cc1)Nc1cc(Cl)cc(Cl)c1 | > 10 µM | > 10 µM | 0.865 µM | 10 µM | > 10 µM | > 10 µM | 1.3 µM | > 10 µM | 8.05 µM | > 10 µM |  |  |
| O=C(Nc1ccc(Cl)cc1)Nc1ccc(Nc2ncnc3c2OCCN3)cc1 | > 10 µM | > 10 µM | 3.07 µM | > 10 µM | > 10 µM | > 10 µM | 2.28 µM | > 10 µM | > 10 µM | > 10 µM |  |  |
| COc1cccc(NC(=O)Nc2ccc(Nc3ncnc4c3OCCN4)cc2)c1 | > 10 µM | > 10 µM | 6.81 µM | > 10 µM | > 10 µM | > 10 µM | 5.29 µM | > 10 µM | > 10 µM | > 10 µM |  |  |
| O=C(Nc1ccc(Nc2ncnc3c2OCCN3)cc1)Nc1cccs1 | > 10 µM | > 10 µM | > 10 µM | > 10 µM | > 10 µM | > 10 µM | 8.64 µM | > 10 µM | > 10 µM | > 10 µM |  |  |
| COc1cc(NC(=O)Nc2cc(C(C)(C)C)on2)ccc1Nc1ncnc2c1OCCN2 | > 10 µM | > 10 µM | 0.022 µM | > 10 µM | > 10 µM | 4.7 µM | 0.033 µM | 3.03 µM | 2.7 µM | > 10 µM |  |  |
| CN1CCCOc2c(Nc3ccc(NC(=O)Nc4cc(C(C)(C)C)on4)cc3)ncnc21 | > 10 µM | > 10 µM | 0.322 µM | > 10 µM | > 10 µM | 3.89 µM | 0.716 µM | 1.6 µM | 3.58 µM | > 10 µM |  |  |
| Cc1cc(C)cc(NC(=O)Nc2ccc(Nc3ncnc4c3OCCN4)cc2)c1 | > 10 µM | > 10 µM | 1.07 µM | > 10 µM | > 10 µM | > 10 µM | 0.971 µM | 5.65 µM | 7.08 µM | > 10 µM |  |  |
| CN1CCOc2c(Nc3ccc(NC(=O)Nc4cc(C(C)(C)C)on4)cc3)ncnc21 | > 10 µM | > 10 µM | 0.324 µM | > 10 µM | > 10 µM | 8.06 µM | 0.344 µM | 4.86 µM | > 10 µM | > 10 µM |  |  |
| Cc1ccc(F)c(NC(=O)Nc2ccc(Nc3ncnc4c3OCCN4)cc2)c1 | > 10 µM | > 10 µM | 1.47 µM | > 10 µM | > 10 µM | > 10 µM | 5.11 µM | 5.82 µM | 10 µM | > 10 µM |  |  |
| CC(C)(C)c1csc(NC(=O)Nc2ccc(Nc3ncnc4c3OCCN4)cc2)n1 | > 10 µM | > 10 µM | 3.15 µM | > 10 µM | > 10 µM | > 10 µM | 5.17 µM | > 10 µM | > 10 µM | > 10 µM |  |  |
| O=C(Nc1ccc(Nc2ncnc3c2OCCN3)cc1)Nc1ccc(C(F)(F)F)cc1 | > 10 µM | > 10 µM | 0.306 µM | 10 µM | 8.49 µM | 4.4 µM | 0.276 µM | 6.65 µM | 3.14 µM | > 10 µM |  |  |
| O=C(Nc1ccc(Nc2ncnc3c2OCCN3)cc1)Nc1cccc(-c2ccccc2)c1 | > 10 µM | > 10 µM | > 10 µM | > 10 µM | > 10 µM | > 10 µM | 7.59 µM | > 10 µM | 10 µM | > 10 µM |  |  |
| O=C(Nc1ccc(Nc2ncnc3c2OCCN3)cc1)Nc1cccc2ccccc12 | > 10 µM | > 10 µM | > 10 µM | > 10 µM | > 10 µM | > 10 µM | > 10 µM | > 10 µM | > 10 µM | > 10 µM |  |  |
| COc1cc2/c(=N/c3ccc(Br)cc3F)nc[nH]c2cc1OCC1CCN(C)CC1 [VANDETANIB] | > 10 µM | 0.97 µM |  | 8.41 µM | > 10 µM | 0.46 µM |  | 0.14 µM | 0.34 µM | 7.15 µM |  |  |
| CC(C)(C)c1cc(NC(=O)Nc2ccc(Nc3ncnc4c3OCCN4)nc2)no1 | > 10 µM | > 10 µM | 0.077 µM | > 10 µM | > 10 µM | 4.12 µM | 0.18 µM | 2.56 µM | 10 µM | > 10 µM |  |  |
| O=C(Nc1ccc(Br)cc1)Nc1ccc(Nc2ncnc3c2OCCN3)cc1 | > 10 µM | > 10 µM | 2.22 µM | 10 µM | > 10 µM | > 10 µM | 2.35 µM | 10 µM | 8.92 µM | > 10 µM |  |  |
| CC(C)(C)c1cc(NC(=O)Nc2cccc(Nc3ncnc4c3OCCN4)c2)no1 | > 10 µM | > 10 µM | 0.944 µM | > 10 µM | > 10 µM | > 10 µM | 3.45 µM | > 10 µM | > 10 µM | > 10 µM |  |  |
| Cc1nc(Nc2ncnc3c2OCCN3)ccc1NC(=O)Nc1cc(C(C)(C)C)on1 | > 10 µM | > 10 µM | 0.781 µM | > 10 µM | > 10 µM | > 10 µM | 1.11 µM | > 10 µM | 10 µM | > 10 µM |  |  |
| COc1ccc(NC(=O)Nc2ccc(Nc3ncnc4c3OCCN4)cc2)cc1 | > 10 µM | > 10 µM | 0.227 µM | > 10 µM | > 10 µM | > 10 µM | 0.824 µM | 6.12 µM | > 10 µM | > 10 µM |  |  |
| O=C(Nc1ccc(Nc2ncnc3c2OCCN3)cc1)Nc1ccc(Cl)c(C(F)(F)F)c1 | > 10 µM | 9.94 µM | 0.177 µM | > 10 µM | > 10 µM | 3.07 µM | 0.188 µM | 1.99 µM | 2.29 µM | > 10 µM |  |  |

Stronger by GI50 [2], values ahead:

| GI50 [2] | GI50 [3] | IC50 [4] | GI50 [5] | GI50 [7] | GI50 [8] | IC50 [10] | Structure (SMILES) | GI50 [1] | GI50 [6] | GI50 [9] | Activity [11] | TGI [12] |
| --- | --- | --- | --- | --- | --- | --- | --- | --- | --- | --- | --- | --- |
| 7.98 µM | 8.61 µM | 8.77 µM | > 10 µM | 8.98 µM | 5.16 µM | 5.37 µM | CC(C)N1CCOc2c(Nc3ccc(NC(=O)Nc4cc(C(C)(C)C)on4)cc3)ncnc21 | 5.1 µM | 3.12 µM | > 10 µM |  |  |
| 6.02 µM | 8.81 µM | 0.025 µM | > 10 µM | 1.87 µM | 3.37 µM | 0.063 µM | CC(C)(C)c1cc(NC(=O)Nc2ccc(Nc3ncnc4c3OCCN4)c(O)c2)no1 | 0.8 µM | 1.55 µM | > 10 µM |  |  |
| 5.72 µM | 4.76 µM | 0.05 µM | > 10 µM | 2.03 µM | 0.73 µM | 0.044 µM | Cc1cc(NC(=O)Nc2cc(C(C)(C)C)on2)ccc1Nc1ncnc2c1OCCN2 | 0.45 µM | 1.54 µM | > 10 µM |  |  |
| 5.23 µM | 0.59 µM | 0.01 µM | > 10 µM | 4.72 µM | 0.09 µM | 0.057 µM | CC(C)(C)c1cc(NC(=O)Nc2ccc(Nc3ncnc4c3OCCN4)cc2F)no1 | 0.08 µM | 0.13 µM | > 10 µM |  |  |
| 4.41 µM | 1.62 µM | 0.01 µM | > 10 µM | 1.36 µM | 0.15 µM | 0.034 µM | CC(C)(C)c1cc(NC(=O)Nc2ccc(Nc3ncnc4c3OCCN4)cc2)no1 | 0.08 µM | 0.11 µM | > 10 µM |  |  |
| 3.49 µM | 2.94 µM | 0.021 µM | 10 µM | 1.53 µM | 0.33 µM | 0.022 µM | CC(C)(C)c1cc(NC(=O)Nc2ccc(Nc3ncnc4c3OCCN4)c(F)c2)no1 | 0.3 µM | 0.39 µM | > 10 µM |  |  |
| 1.8 µM | 1.28 µM |  | 6.36 µM | 1.1 µM | 0.23 µM |  | CNC(=O)c1cc(Oc2ccc(NC(=O)Nc3ccc(Cl)c(C(F)(F)F)c3)cc2)ccn1 [SORAFENIB] | 0.23 µM | 0.32 µM | > 10 µM | Non-Toxic | Active |
| 1.53 µM | 1.45 µM |  | 9.36 µM | 2.8 µM | 0.15 µM |  | COc1cc2nccc(Oc3ccc(NC(=O)C4(C(=O)Nc5ccc(F)cc5)CC4)cc3)c2cc1OC [CABOZANTINIB] | 0.2 µM | 0.1 µM | > 10 µM | Non-Toxic | Active |
